In US8722910B2, “Diyne compositions” (Evolva AG, priority 2009, dated 2014):
Converted amounts (≈) assume the structure as drawn.

Experiments:
Epidermophyton floccosum = test: In vitro antifungal activity vs. dermatophytes (MIC/MFC); assay type: cell-based; details: Epidermophyton floccosum (n = 15)
[1] = In vitro Mammalian Cell Cytotoxicity; assay type: cell-based; details: human, HFF cells
[2] = Solubility in water (incremental addition, 50° C.); assay type: physicochemical; details: 10 mg, water added up to 50 μl
Protocol: Solubility in water was determined. This was carried out by transferring 10 mg of the material into 1.5 ml HPLC vials. Then 10 μl (1 vol) of water was added. The sample was then isothermally held at 50° C. with stirring for 30 mins. The process was continued up to 50 μl by 10 μl increments with heating to 50° C. in between.

C. albicans = test: Effect on the morphology of growing Candida albicans cultures; assay type: cell-based; details: inhibiting concentrations
[3] = system: Trichophyton mentagrophytes; test: Guinea pig skin infection, topical dosing; assay type: in vivo; details: guinea pigs
Protocol: The efficacy of compound III″ in skin infections of small mammals was shown in guinea pigs infected with Trichophyton mentagrophytes on abrased skin. Compound III″ was administered topically at 0.1% or 1% once daily for seven days. Fungal burden decreased by 82% and 98% respectively, compared to the untreated control (see FIG. 13 showing topical fungal burden as determined by culture positive hair removed from the site of infection).

all Candida strains = test: MIC range over all Candida strains tested; assay type: cell-based; details: Table 13 strains
(1,3)β-Glucan Synthase = test: Inhibition of fungal cell wall synthesis enzymes; assay type: biochemical
Description: (§1) Specific inhibitors of each enzyme served as positive controls (Cilofungin, a β-glucan synthase inhibitor and nikkomycin Z, a chitin synthase inhibitor).

Chitin Synthase = test: Inhibition of fungal cell wall synthesis enzymes; assay type: biochemical
Description: as §1

C. krusei = test: In vitro antifungal activity vs. yeasts (MIC/MFC); assay type: cell-based; details: Pichia kudriavzevii, C. krusei (n = 1)
[4] = system: Staphylococcus aureus 29213; test: In vitro Antibacterial Activity; assay type: cell-based; details: read-out: MIC90
C. glabrata = test: In vitro antifungal activity vs. yeasts (MIC/MFC); assay type: cell-based; details: Nakaseomyces glabratus, C. glabrata (n = 1)
OLE1 = OLE1 expression by real time PCR; assay type: cell-based, S. cerevisiae
Protocol: The expression of OLE1 was determined by real time PCR 10, 60, 120 and 240 min after compound addition (Knechtle, P. and Greve, K., 2009). OLE1 transcript levels were calibrated to the expression of the tubulin gene (TUB1) and normalized to the OLE1 expression at 10 min without compound addition (FIG. 17(a)).
The expression of the OLE1 gene was determined by real time PCR 10, 60, 120 and 240 min for the conditions a.-e., as indicated in Table 3 above. OLE1 transcript levels were calibrated to the expression of the tubulin gene (TUB1) and normalized to the OLE1 expression at 10 min without compound addition. See FIG. 17a showing time dependent expressions of OLE1 in response to compound IV″. Conditions a.-e. are listed in Table 3 above, numbers indicate time intervals in minutes. Expressions of OLE1 are given as multiples of the expression at 10 min, condition a. […] 10 μg/ml oleic acid compensated for the OLE1 expression increase caused by 1 μg/ml compound IV alone. Compound IV″ dependent up-regulation of OLE1 expression thus confirms that compound IV″ is acting as an inhibitor of the Ole1 protein. The antagonistic effect of oleic acid found in the susceptibility assays, is reflected mechanistically in this experiment by a down-regulation of the target Ole1 protein through oleic acid.

Cytochrome P450 2C19 = Cytochrome P450 2C19 (Homo sapiens, UniProt P33261); test: Inhibition of cytochrome P450 enzymes; assay type: in vitro ADME; details: substrate omeprazole
Sequence of Cytochrome P450 2C19 (P33261 whole entry): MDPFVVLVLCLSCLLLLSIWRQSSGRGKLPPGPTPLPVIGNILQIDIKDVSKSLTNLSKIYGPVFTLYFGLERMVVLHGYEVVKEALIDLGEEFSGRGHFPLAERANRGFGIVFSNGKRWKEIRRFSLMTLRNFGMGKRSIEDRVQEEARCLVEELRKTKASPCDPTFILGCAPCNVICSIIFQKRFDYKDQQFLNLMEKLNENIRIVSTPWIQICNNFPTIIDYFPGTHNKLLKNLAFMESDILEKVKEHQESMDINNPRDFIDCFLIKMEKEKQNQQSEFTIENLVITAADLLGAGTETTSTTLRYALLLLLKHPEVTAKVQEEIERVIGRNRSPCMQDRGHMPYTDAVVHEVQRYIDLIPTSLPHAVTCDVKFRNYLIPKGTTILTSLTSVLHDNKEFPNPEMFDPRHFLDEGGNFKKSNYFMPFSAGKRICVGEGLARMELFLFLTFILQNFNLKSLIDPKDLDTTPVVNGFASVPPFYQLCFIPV
Protocol: (§2) Peak areas corresponding to the metabolite of each substrate were recorded. The percent of control activity was then calculated by comparing the peak area obtained in the presence of the diyne potassium salt and in the absence.

Cytochrome P450 2B6 = Cytochrome P450 2B6 (Homo sapiens, UniProt P20813); test: Inhibition of cytochrome P450 enzymes; assay type: in vitro ADME; details: substrate bupropion
Sequence of Cytochrome P450 2B6 (P20813 whole entry): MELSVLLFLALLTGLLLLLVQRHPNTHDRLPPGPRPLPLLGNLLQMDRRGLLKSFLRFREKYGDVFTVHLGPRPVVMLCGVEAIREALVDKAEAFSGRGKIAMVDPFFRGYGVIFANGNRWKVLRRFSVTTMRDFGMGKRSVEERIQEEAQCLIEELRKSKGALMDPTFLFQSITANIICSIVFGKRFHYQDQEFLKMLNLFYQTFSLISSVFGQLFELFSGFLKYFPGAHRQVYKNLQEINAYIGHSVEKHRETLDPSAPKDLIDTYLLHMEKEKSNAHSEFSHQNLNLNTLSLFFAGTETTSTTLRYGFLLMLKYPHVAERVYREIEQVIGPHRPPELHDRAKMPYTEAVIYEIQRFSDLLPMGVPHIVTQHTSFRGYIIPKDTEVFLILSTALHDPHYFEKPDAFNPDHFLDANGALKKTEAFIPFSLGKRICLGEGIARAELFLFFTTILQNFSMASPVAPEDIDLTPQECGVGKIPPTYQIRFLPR
Protocol: as §2

GVS moisture sorption = assay type: physicochemical; details: 25° C.
Protocol: Sorption isotherms were obtained using a Hiden IGASorp moisture sorption analyser, controlled by CFRSorp software. The sample temperature was maintained at 25° C. by a Huber re-circulating water bath. The humidity was controlled by mixing streams of dry and wet nitrogen, with a total flow rate of 250 ml.min-1. The relative humidity (RH) was measured by a calibrated Vaisala RH probe (dynamic range of 0-95% RH), located near the sample. The weight change, (mass relaxation) of the sample as a function of % RH was constantly monitored by the microbalance (accuracy ±0.001 mg). Typically 10-20 mg of sample was placed in a tared mesh stainless steel basket under ambient conditions. The sample was loaded and unloaded at 40% RH and 25° C. (typical
room conditions). A moisture sorption isotherm was performed. The software uses a least squares minimisation procedure together with a model of the mass
relaxation, to predict an asymptotic value. The measured mass relaxation value must be within 5% of that predicted by the software, before the next % RH value is selected. The sample was recovered after completion of the isotherm and re-analysed by XRPD.

[5] = Aqueous solubility (equilibrated 25° C., 24 hours, HPLC); assay type: physicochemical; details: water, thermodynamic from solid
Protocol: The potassium salt was furthermore submitted to a solubility determination. Aqueous solubility was determined by suspending sufficient compound in water to give a maximum final concentration of ≧100 mg.m1-1 of the parent free-form of the compound. The suspension was equilibrated at 25° C. for 24 hours then the pH was measured. The suspension was then filtered through a glass fibre C filter into a 96 well plate. The filtrate was then diluted by a factor of 101. Quantification was by HPLC with reference to a standard solution of approximately 0.1 mg.ml-1. in DMSO. Different volumes of the standard, diluted and undiluted sample solutions were injected. The solubility was calculated using the peak areas determined by integration of the peak found at the same retention time as the principal peak in the standard injection. Analysis was performed on an Agilent HP1100 series system equipped with a diode array detector and using ChemStation software vB.02.01-SR1.

## O=C(O)CCCCCCC/C=C\C#CC#Cc1ccco1 [Compound III″]
Epidermophyton floccosum; 96 h, 35° C., 4 days
  MIC: < 0.06 ng/mL
Epidermophyton floccosum
  MFC: 15 ng/mL (≈ 0.0528 µM)
Epidermophyton floccosum; MIC90, 48 h
  MIC90/MIC range 48 h: <0.06 ng/mL
[1]
  CC50: 75000 ng/mL (≈ 264 µM)
[2]
  solubility in water: still did not dissolve
C. albicans; microscopy
  effect on hyphal tube formation: prevented hyphal tube formation
C. albicans; microscopy and MTT
  effect on cell growth: fungicidal, totally preventing cell growth
[3]; topically 0.1% once daily for seven days
  decrease of fungal burden (culture positive hair): 82%
[3]; topically 1% once daily for seven days
  decrease of fungal burden (culture positive hair): 98%
All Candida strains
  MIC range for all Candida strains: <0.06 to 4000 ng/mL
(1,3)β-Glucan Synthase; 10 μg/ml
  % Inhibition, (1,3)β-Glucan Synthase: 0%
(1,3)β-Glucan Synthase; 100 μg/ml
  % Inhibition, (1,3)β-Glucan Synthase: 73%
(1,3)β-Glucan Synthase; 400 μg/ml
  % Inhibition, (1,3)β-Glucan Synthase: 90%
Chitin Synthase; 10 μg/ml
  % Inhibition, Chitin Synthase: 16%
Chitin Synthase; 100 μg/ml
  % Inhibition, Chitin Synthase: 85%
Chitin Synthase; 500 μg/ml
  % Inhibition, Chitin Synthase: 97%
Chitin Synthase; chitin synthase and β-glucan synthase
  concentrations at which the enzymes were inhibited: > 100 µg/mL
C. krusei
  MFC: 1 ng/mL (≈ 0.00352 µM)
C. krusei; 90% inhibition endpoint
  MIC: 0.5 ng/mL (≈ 0.00176 µM)
[4]
  MIC90: 50000 ng/mL (≈ 176 µM)
C. glabrata
  MFC: 500 ng/mL (≈ 1.76 µM)
C. glabrata; 90% inhibition endpoint
  MIC: 8 ng/mL (≈ 0.0281 µM)

## O=C([O-])CCCCCCC/C=C\C#CC#Cc1ccco1.[K+] [Compound IV″, potassium (Z)-14-(furan-2-yl)tetradeca-9-en-11,13-diynoate]
OLE1; 1 μg/ml, 10-240 min
  increase of the expression level of OLE1: 3-5 fold
OLE1; 1 μg/ml, at 120 min
  increase of the expression level of OLE1: 4.9 fold
OLE1; 10 μg/ml, 10-240 min
  increase of the expression level of OLE1: 7-19 fold
OLE1; 10 μg/ml, at 120 min
  increase of the expression level of OLE1: 18.7 fold
Cytochrome P450 2C19
  IC50: 32 µM
Cytochrome P450 2C19; 10 μM
  % control at 10 μM: 84%
Cytochrome P450 2B6
  IC50: 24 µM
Cytochrome P450 2B6; 10 μM
  % control at 10 μM: 82%
GVS moisture sorption; GVS
  moisture uptake behaviour: takes up very little moisture until it reaches approximately 70-80% RH
GVS moisture sorption; at 90% RH
  moisture uptake in weight: 28%
[5]
  solubility at 24 h: > 96.5 mg/mL
